The target in the first data set is aldosterone synthase (Rattus norvegicus, UniProt P30099). Kind of data set: aldosterone synthase inhibitory activity in vitro. In kind it is biochemical. To be noted: rat adrenal glomerulosa homogenate, corticosterone substrate; read-out: inhibits the aldosterone synthase activity, IC50 value.
Sequence of aldosterone synthase (P30099 35-510): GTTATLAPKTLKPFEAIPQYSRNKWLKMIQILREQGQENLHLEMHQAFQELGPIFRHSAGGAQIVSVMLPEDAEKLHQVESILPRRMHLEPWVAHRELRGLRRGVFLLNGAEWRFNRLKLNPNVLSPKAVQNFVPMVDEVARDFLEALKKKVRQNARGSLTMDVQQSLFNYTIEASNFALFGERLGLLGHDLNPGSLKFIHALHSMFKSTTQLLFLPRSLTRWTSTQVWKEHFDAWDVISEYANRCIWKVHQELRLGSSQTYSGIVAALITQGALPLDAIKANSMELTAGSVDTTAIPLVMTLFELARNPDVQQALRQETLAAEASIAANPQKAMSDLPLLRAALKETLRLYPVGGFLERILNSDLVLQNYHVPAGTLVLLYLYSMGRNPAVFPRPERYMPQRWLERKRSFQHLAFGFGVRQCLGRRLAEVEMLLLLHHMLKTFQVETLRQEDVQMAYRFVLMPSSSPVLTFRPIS
Source text: The aldosterone synthase inhibitory activity in vitro may be determined as follows:
Adult male Sprague-Dawley rats weighing 125-150 g are obtained from Harlan Farms. All animals are caged in pairs and maintained under standard conditions of light and temperature. The animals are placed on a sodium depleted diet (0.01-0.02%) from Harland Teklad, Madison Wis. (Cat. No. TD90228) and maintained on normal drinking water ad libitum. The animals are maintained on this diet for two to four weeks prior to harvesting the adrenal glomerulosa cells. The rats are killed by CO2 inhalation, and the adrenals are immediately removed and placed in the same ice-cold buffer used during homogenization and assay of the enzyme preparation. The adrenals are de-capsulated to obtain the glomerulosa tissue. The tissue is homogenized in a glass homogenizer containing Tris assay buffer (8.5 mM MgCl2, 2.7 mM CaCl2, 3.13 mM KCl, 7.59 mM NaCl, 0.1% TEA and 50 mM Tris HCl adjusted to pH 7.4). […] The plates are scanned for radioactivity with a Bioscan System 200 Imaging Scanner (Bioscan, Ish. D.C.). The two products of the aldosterone synthase, 18—OH-corticosterone and aldosterone are scraped and counted in a liquid scintillation counter (Beckman LS6000TA, Beckman Instr., Palo Alto, Calif.).
The slope (Hill Coefficient) and x intercept (IC50) are determined by linear regression of the experimental data.
For orientation: IC50 means the concentration needed to halve the response being measured. With `Cl.c1ccc2c(-c3cccc4cncn34)cccc2c1` [Example 1, 5-Naphthalen-1-yl-imidazo[1,5-a]pyridine hydrochloride], the half-maximal inhibitory concentration (IC50) was around 50 nM.

Test system in a further data set: not given
Experiment: not given
Conditions: not given
The term melting point denotes the temperature, or range, at which the solid turns liquid. For `Cl.c1ccc2c(-c3cccc4cncn34)cccc2c1` [Example 1, 5-Naphthalen-1-yl-imidazo[1,5-a]pyridine hydrochloride], the melting point lay in the range of 222 to 223 °C.

For `Cl.c1ccc2c(-c3cccc4cncn34)coc2c1`, the melting point lay in the range of 96 to 98 °C.

Regarding `Cl.c1ccc(-c2ccccc2-c2cccc3cncn23)cc1`, the melting point was in the range of 200 to 201 °C.

As for `Cl.O=C(OCc1ccccc1)N1CC=C(c2cccc3cncn23)CC1`, the melting point was 149 to 152 °C.

For `Cl.c1ccc(-c2ccc(-c3cccc4cncn34)cc2)cc1`, the melting point is 240 to 242 °C.

(Values after patent US7713991B2, “Imidazo[[1, 5-A] pyridine derivatives and methods for treating aldosterone mediated diseases” (Novartis AG, priority 2003, dated 2010).)
